# Tests used:
# [1] = system: HEK293T Tau RD P301S FRET biosensor cells; experiment: D+R functional assay: tau seed transfer from P2-seeded donor cells to DiD-labeled recipient cells; assay type: cell-based
# Method: The compounds disclosed herein were further evaluated in the functional assays (“D+R approach”). The assays were based on the use of two cell populations—donor cells (D) and recipient cells (R). Recipients express a specific signal upon accumulation of protein aggregates (for example, FRET signal). The D+R approach can be divided into four steps (FIG. 4A).
# In step 1, donor and recipient cells were plated in separation and protein aggregation is induced in the donor cells by using tissue-derived or synthetic proteopathic seeds (“seeding”) or by chemical and/or genetic methods. In step 2, either donor cells or recipient cells were labeled with a lipophilic dye (or by other cell labeling technology) in order to be able to distinguish between donor and recipients cells after trypsinization and re-plating of the donor and recipient cells together in step 3 (R+D). Alternatively, donor and recipient cells were physically divided by a permeable support (for example, Transwell). In any scenario, the cells were connected through the media and they grow for 24-60 hours with or without addition of pre-selected compounds. Efficiency of proteopathic seed transmission from donor cells to recipient cells can be analyzed using microscopy, flow cytometry, or imaging flow cytometry. […] Treatment of the tau biosensor cells with tau seeds lead to RD aggregation, as a result, CFP and YFP molecules come into close proximity and a FRET signal can be generated in the CFP/YFP pair upon illumination. The far-red fluorescent, lipophilic carbocyanine dye, DiD, was used for labeling recipient cells. This dye allowed for distinguishing between the DiD-negative donor and the DiD positive recipient cells without interference with the CFP/YFP FRET signal. The representative images of DiD-negative FRETpositive donor cell seeded with P2-derived tau seeds), DiD-positive FRET-negative recipient cell (DiD-R), and DiD positive FRET-positive recipient cell, which were growing in the presence of P2-D (DiD-R/R+D) are presented at the FIG. 4B. […]
# Thy1-aSyn mice = experiment: Initial efficacy in Thy1-aSyn mice, aSyn immunofluorescence in substantia nigra; assay type: in vivo; conditions: Thy-1 aSyn mice, 100 mg/kg/day oral, 5 weeks
# Method: Mice overexpressing human wild-type a-synuclein under control of the Thy-1 promoter (Thy1-aSyn mice) and control C57B1/6 mice were housed under a 12-hour light/dark cycle and had access to standard chow ad libitum. […] Two hours after the last dose, mice were euthanized by ketamine/xylazine over-anesthesia followed by cardiac puncture and saline transcardial perfusion. Brain tissue from individual mice were dissected.
# All staining procedures and data collection were performed by investigators blinded to treatment. Double-immunofluorescence for Clone 42 Anti-aSyn/TH in SN (substantia nigra). Analysis of a-synuclein and tyrosine hydroxylase (TH, the marker of dopaminergic neurons) levels was performed in serially sectioned, free-floating vibratome sections. […]
# For the quantification of aSyn and TH fluorescent immunolabeling images of immunofluorescence-labeled sections were acquired using an Agilent (Santa Clara, Calif.) microarray scanner equipped with a krypton/argon laser (647 nm) at 10 μm resolution with the photomultiplier tube set at 5% for aSyn and 10% for TH. Immunofluorescence intensity was measured using ImageJ in the appropriate region of interest. TH staining was quantified in the SN pars compact and SN pars reticulate. […]
compound,measurement,setting,value
O=c1[nH]c(=S)[nH]c(-c2ccccc2)c1Cc1c(O)ccc2ccccc12 [cambinol],tau seed transmission from donor cells to recipient cells,"[1]; D+R model, flow cytometry (FIG. 4C)",restrained tau seed transmission from the donor cells to the recipient cells in a dose-dependent manner
same,EC50,"[1]; Homo sapiens, HEK-293T, 48 h, 48-hour treatment, P2-seeded donor cells, FRET-positive aggregates in recipient cells, read-out: EC50, reduction of tau transfer from donor to recipient cells (D+R assay)",~14 µM
same,aSyn levels in the substantia nigra (SN),Thy1-aSyn mice,trend to decrease

# Source: patent US20200270216A1, “COMPOSITIONS AND METHODS FOR INHIBITING N-SMASE2” (The Regents of the University of California, priority 2017, published 2020)
